What was measured:
T2-A24 cells = experiment: 51Cr release assay of C27 against peptide-pulsed T2-A24; assay type: cell-based; details: effector to target ratio of 1
PC9 = experiment: Cold target inhibition assay; assay type: cell-based; details: peptide 1×10^−5 M pulsed T2-A24 cells
Method: Cold target inhibition assay was carried out according to the method of Arai et al. (Blood, 97:2903-2907, 2001). […] After several washings, the resultants were incubated with 2×10^4 effector cells for 1 hour to yield a ratio of peptide-pulsed T2-A24 cells to target cells of 40:1, 20:1, 10:1, and 5:1. 2×10^3 51Cr-labeled PC9 cell lines were added to each well. The cytotoxicity was determined as described in the item 7) regarding CTL assays.

HLA-A2402 = HLA-A2402 (Homo sapiens, UniProt P04439, D101N/D140Y/D185E/E176V/E190D/F33S/G103R/G107R/I119L/I121M/I306V/K335N/L105A/L180Q/L300P/N151K/N90K/Q86E/Q94H/R106L/R138H/R89G/T104I/T345S/V100E/W191G/Y123F); experiment: MHC stabilization assay using T2-A24 cells; assay type: binding; details: ranking among the seven peptides
[1] = tested on: CD8 positive T-cells of HLA-A2402 positive healthy donors; experiment: ELISPOT assay of IFN-γ; assay type: cell-based, human; details: T-cell lines stimulated by peptide-pulsed dendritic cells, incubated with peptide-pulsed T2-A24 cells
Method: Subsequently, self-derived dendritic cells were pulsed at room temperature for 2 to 4 hours with each of the Ep-CAM synthesis peptides with a concentration of 10 μM in an AIM-V culture medium (product of Gibco) containing 5×10^−5 M β-mercaptoethanol, followed by irradiation (33Gy).
The dendritic cells (1×10^5 cells) were then cocultivated in a culture tube with CD8 positive T lymphocytes (1×10^6 lymphocytes) in a RPMI1640 culture medium containing 10% human blood serum, 25 ng/mL recombinant human IL-7 (product of R&D systems company), and 5 ng/mL recombinant human IL-12 (product of R&D systems company).
After seven days of cultivation, the cells were stimulated by adding 1×10^5 peptide-pulsed self-derived dendritic cells prepared as above. After a further seven days of cultivation, the cells were stimulated 3 times by the same procedure. After each restimulation, human recombinant IL-2 (product of Takeda Pharmaceutical Company, Ltd.) was added to give a final concentration of 20 units/ml. Actively proliferating cells were divided into 2 or 3 tubes as necessary, and cultured in a fresh culture medium containing 20 units/ml of IL-2. […]
The plate was incubated at 37° C. for 20 hours in a 5% CO2 incubator, and thoroughly washed with PBS containing 0.05% Tween 20. […] The number of diffused large spots was counted under the microscope.

CC[C@H](C)[C@H](NC(=O)[C@H](Cc1ccccc1)NC(=O)[C@H](CCCCN)NC(=O)[C@@H]1CCCN1C(=O)[C@H](CC(=O)O)NC(=O)[C@H](CC(C)C)NC(=O)[C@H](CCC(N)=O)NC(=O)[C@H](Cc1ccc(O)cc1)NC(=O)[C@@H](N)CCCNC(=N)N)C(=O)O [Ep173]
peptide concentration at which C27 demonstrated cytotoxicity against pulsed T2-A24 cells (T2-A24 cells): 100 pM
inhibition of C27-mediated cytotoxicity against PC9 by peptide-pulsed T2-A24 cold target cells (PC9): specifically inhibited

EMGEMHREL (… PROTEIN EPITOPE PEPTIDE …) [Ep304, Ep-CAM peptide, amino acid positions 304-312]
affinity for the HLA-A2402 (HLA-A2402): lowest affinity

RYLRDQQLL (SYTHETIC PROTEIN EPITOPE PEPTIDE …) [ENV584, human immunodeficiency virus-1 (HIV-1) envelope peptide, residues 584-592, control, reference compound]
production of IFN-γ spots [1]: not observed

YYVDEKAPEF (… PROTEIN EPITOPE PEPTIDE …) [Ep250, Ep-CAM peptide, amino acid positions 250-259]
production of IFN-γ spots [1]: specifically produced IFN-γ spots

Reference: patent US7846651B2, “Epitope/peptide recognized by HLA-A2402-restricted Ep-CAM-specific CTL and use of the same” (Aichi Prefecture, priority 2004, dated 2010)
